# Measured values taken from patent publication US9487488B2, “Sulfonamide compound” (MITSUBISHI TANABE PHARMA CORPORATION, priority 2012, dated 2016).
# Biological target: human TRPM8 (Homo sapiens (Human), UniProt Q7Z2W7)
# Experiment: TRPM8 inhibition assay (menthol-induced calcium influx, FDSS)
# Assay type: cell-based
# Conditions: HEK293 cells stably expressing human TRPM8; 100 μmol/L menthol; Fura-2AM calcium signal; read-out: TRPM8 Blocking Test (IC50/nmol/L)
# Procedure: The functional activity of a test compound was determined by measuring change in intracellular calcium concentration using a calcium sensitive fluorescent dye. The change in fluorescent signal was measured by the cell imaging technology by Hamamatsu Photonics's Functional Drug Screening System (FDSS).
# HEK293 cells stably expressing human TRPM8 were grown in a flask. On assay day, the culture medium was removed from the flask, and cells were washed with phosphate-buffered saline (PBS) and harvested with PBS containing 2 mmol/L of ethylenediaminetetraacetic acid disodium salt (EDTA-2Na). […] Subsequently, suspended 20,000 to 50,000 cells per well were incubated with a test compound (at varying concentrations) in each well at 37° C. for 20 minutes. Change in intracellular calcium concentration evoked by 100 μmol/L of menthol was measured for 2 minutes using FDSS. […] The concentration-response curve was generated using the average of quadruplicate wells for each data point.
# Chain of human TRPM8 (Q7Z2W7 whole entry): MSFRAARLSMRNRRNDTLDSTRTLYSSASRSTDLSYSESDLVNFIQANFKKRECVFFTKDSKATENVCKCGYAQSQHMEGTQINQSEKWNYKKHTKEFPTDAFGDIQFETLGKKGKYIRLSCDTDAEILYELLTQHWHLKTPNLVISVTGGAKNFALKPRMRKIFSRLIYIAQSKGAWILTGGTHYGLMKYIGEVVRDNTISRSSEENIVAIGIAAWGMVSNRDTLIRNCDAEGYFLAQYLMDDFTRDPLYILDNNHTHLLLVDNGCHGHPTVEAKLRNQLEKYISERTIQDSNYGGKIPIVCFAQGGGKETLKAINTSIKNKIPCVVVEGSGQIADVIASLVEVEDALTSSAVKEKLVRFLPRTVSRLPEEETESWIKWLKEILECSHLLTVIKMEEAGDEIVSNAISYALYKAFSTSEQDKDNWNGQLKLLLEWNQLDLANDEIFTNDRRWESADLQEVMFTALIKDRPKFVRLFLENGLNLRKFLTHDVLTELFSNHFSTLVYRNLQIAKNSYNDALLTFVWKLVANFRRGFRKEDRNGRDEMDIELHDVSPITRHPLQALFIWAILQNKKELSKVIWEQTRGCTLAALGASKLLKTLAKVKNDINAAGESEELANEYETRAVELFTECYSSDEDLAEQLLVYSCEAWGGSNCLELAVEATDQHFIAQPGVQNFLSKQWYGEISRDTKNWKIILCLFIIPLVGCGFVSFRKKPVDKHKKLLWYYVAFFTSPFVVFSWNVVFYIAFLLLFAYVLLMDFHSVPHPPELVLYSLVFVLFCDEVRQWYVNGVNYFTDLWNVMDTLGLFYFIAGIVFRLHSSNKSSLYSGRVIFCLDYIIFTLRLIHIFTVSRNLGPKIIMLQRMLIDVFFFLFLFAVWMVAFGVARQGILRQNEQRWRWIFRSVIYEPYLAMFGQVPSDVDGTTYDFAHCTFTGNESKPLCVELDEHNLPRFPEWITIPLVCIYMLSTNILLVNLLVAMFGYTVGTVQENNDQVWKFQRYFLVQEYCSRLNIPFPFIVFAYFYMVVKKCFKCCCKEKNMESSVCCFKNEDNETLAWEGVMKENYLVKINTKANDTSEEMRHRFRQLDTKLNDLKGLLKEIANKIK
row,Compound,IC50
1,"O=S(=O)(c1ccc(-c2nnn[nH]2)cc1)N(Cc1ccc(OC(F)(F)F)cc1)c1ncc2ccccc2c1C1CC1 [Example 1, N-(4-cyclopropylisoquinolin-3-yl)-4-(1H-tetrazol-5-yl)-N-[4-(trifluoromethoxy)benzyl]benzenesulfonamide]",0.3 nmol/L
2,"O=S(=O)(c1ccc(-c2nnn[nH]2)nc1)N(Cc1ccc(OC(F)(F)F)cc1)c1ncc2ccccc2c1C1CC1 [Example 2, N-(4-cyclopropylisoquinolin-3-yl)-6-(1H-tetrazol-5-yl)-N-[4-(trifluoromethoxy)benzyl]pyridine-3-sulfonamide]",0.7 nmol/L
3,"O=S(=O)(c1ccc(-c2nnn[nH]2)cn1)N(Cc1ccc(OC(F)(F)F)cc1)c1ncc2ccccc2c1C1CC1 [Example 3, N-(4-cyclopropylisoquinolin-3-yl)-5-(1H-tetrazol-5-yl)-N-[4-(trifluoromethoxy)benzyl]pyridine-2-sulfonamide]",7.6 nmol/L
4,"O=c1[nH]nnn1-c1ccc(S(=O)(=O)N(Cc2ccc(OC(F)(F)F)cc2)c2ncc3ccccc3c2C2CC2)cc1 [Example 4, N-(4-cyclopropylisoquinolin-3-yl)-4-(5-oxo-4,5-dihydro-1H-tetrazol-1-yl)-N-[4-(trifluoromethoxy)benzyl]benzenesulfonamide]",1.1 nmol/L
5,"O=S(=O)(c1ccc(-c2ncn[nH]2)cc1)N(Cc1ccc(OC(F)(F)F)cc1)c1ncc2ccccc2c1C1CC1 [Example 5, N-(4-cyclopropylisoquinolin-3-yl)-4-(2H-1,2,4-triazol-3-yl)-N-[4-(trifluoromethoxy)benzyl]benzenesulfonamide]",3.4 nmol/L
6,"O=S(=O)(c1ccc(-c2ncn[nH]2)nc1)N(Cc1ccc(OC(F)(F)F)cc1)c1ncc2ccccc2c1C1CC1 [Example 6, N-(4-cyclopropylisoquinolin-3-yl)-6-(1H-1,2,4-triazol-5-yl)-N-[4-(trifluoromethoxy)benzyl]pyridine-3-sulfonamide]",1.7 nmol/L
7,"O=c1[nH]c(-c2ccc(S(=O)(=O)N(Cc3ccc(OC(F)(F)F)cc3)c3ncc4ccccc4c3C3CC3)cc2)no1 [Example 7, N-(4-cyclopropylisoquinolin-3-yl)-4-(5-oxo-4,5-dihydro-1,2,4-oxadiazol-3-yl)-N-[4-(trifluoromethoxy)benzyl]benzenesulfonamide]",1 nmol/L
8,"O=c1[nH]c(-c2ccc(S(=O)(=O)N(Cc3ccc(OC(F)(F)F)cc3)c3ncc4ccccc4c3C(F)(F)F)cc2)no1 [Example 8, 4-(5-oxo-4,5-dihydro-1,2,4-oxadiazol-3-yl)-N-[4-(trifluoromethoxy)benzyl]-N-[4-(trifluoromethyl)isoquinolin-3-yl]benzenesulfonamide]",2.3 nmol/L
9,"O=c1[nH]c(-c2ccc(S(=O)(=O)N(Cc3ccc(OC(F)(F)F)cc3)c3ncc4ccccc4c3C3CC3)cn2)no1 [Example 9, N-(4-cyclopropylisoquinolin-3-yl)-6-(5-oxo-4,5-dihydro-1,2,4-oxadiazol-3-yl)-N-[4-(trifluoromethoxy)benzyl]pyridine-3-sulfonamide]",1.1 nmol/L
10,"CC(=O)NCc1ccc(S(=O)(=O)N(Cc2ccc(OC(F)(F)F)cc2)c2ncc3ccccc3c2C2CC2)cc1 [Example 10, N-[4-({(4-cyclopropylisoquinolin-3-yl)[4-(trifluoromethoxy)benzyl]amino}sulfonyl)benzyl]acetamide]",23.9 nmol/L
11,"CS(=O)(=O)NCc1ccc(S(=O)(=O)N(Cc2ccc(OC(F)(F)F)cc2)c2ncc3ccccc3c2C2CC2)cc1 [Example 11, N-(4-cyclopropylisoquinolin-3-yl)-4-{[(methylsulfonyl)amino]methyl}-N-[4-(trifluoromethoxy)benzyl]benzenesulfonamide]",29.5 nmol/L
12,"O=S(=O)(c1ccc(CNS(=O)(=O)C(F)(F)F)cc1)N(Cc1ccc(OC(F)(F)F)cc1)c1ncc2ccccc2c1C1CC1 [Example 12, N-(4-cyclopropylisoquinolin-3-yl)-N-[4-(trifluoromethoxy)benzyl]-4-({[(trifluoromethyl)sulfonyl]amino}methyl)benzenesulfonamide]",40.2 nmol/L
